# What was measured:
# [1] = system: Drosophila Chk1 or p53 mutant larvae; assay: Drosophila screen for agents that increase the sensitivity of mutant larvae to radiation (NCI Diversity Set I and Natural Products Set); assay type: in vivo; conditions: irradiated Drosophila Chk1 or p53 mutant larvae
# Source text: The Diversity Set I from the NCI-DTP, which is comprised of 1990 molecules chosen for chemical structural diversity and not for biological activity was screened using the Drosophila screen (U.S. Pat. No. 7,695,899).
# Table 1. […] A total of 2225 molecules in Diversity Set I (n=1990) and Natural Products Set (n=235) libraries from the NCI-DTP were screened for agents that increased the sensitivity of Drosophila Chk1 or p53 mutant larvae to radiation. […] MT=microtubule; DS=double strand; topo=topoisomerase; NT=nucleotide
# The Natural Product Set, also from the NCI-DTP, which contains 235 small molecules derived from natural sources was selected next. These molecules were identified initially in extracts from plants, microbes and marine organisms, but are now synthesized to sufficient purity for distribution by the NCI as plated sets.
# (§1) The screen was performed using irradiated mutant larvae. Hits from the screen were defined as those that reduced the survival of IRRADIATED larvae compared to the population of drugs being tested (approximately 80 molecules at a time) or compared to DMSO controls in the re-test. A hit could therefore act by enhancing the effect of radiation, or by simply killing larvae as a single agent, or both. To distinguish among these possibilities, hits from the screen were re-tested against larvae with and without irradiation.
# [2] = system: wild type Drosophila larvae; assay: Drosophila larval survival to adulthood (eclosion), drug with and without IR, wild type; assay type: in vivo; conditions: wild type Drosophila larvae
# Method: as §1, with “To validate the identification of Bouvardin from the primary screen, the effect of this molecule on Drosophila larvae alone or in combination with radiation were assessed (FIG. 12). The” for “The”
# (§2) In FIG. 12 survival after each treatment is expressed as the fraction of animals that emerged (“eclosed”) as viable adults. The averages have been normalized to the average fraction eclosed in no IR/drug control for the respective genotype. Error bars extend beyond fractional survival of 1.0 simply because of normalization. (A-C) Fraction eclosed for WT and grp and p53 mutants at 16 uM of Bouvardin, with and without IR. The data are averages of 3-8 biological replicates per sample. Dotted line on each graph denotes expected ‘fraction eclosed’ if drug and IR act additively. IR doses were 4000R for WT and grp and 3000R for p53 because of the higher radiation sensitivity of the latter. (D) Fraction eclosed for Minute mutants and yw controls after exposure to 0 (−IR) and 2000R (+IR) of X-rays. N ranged from 86-207 per genotype per treatment, in 3 biological replicates per sample. *=p<0.01; **=<0.001. 100R=1Gy. Error bar=1 standard deviation.
# (§3) The activity of Bouvardin in Drosophila alone or in combination with ionizing radiation (IR) was assessed. Drug concentrations of 10-20 μM were used to approximate the conditions of the original screen. Third instar larvae were irradiated and cultured on medium containing drug. The survival of larvae was quantified 10 days later by measuring the rate of eclosion into adulthood. […] For example, IR alone reduces the eclosion of p53 mutants to 0.63±0.05 and 10 μM of drug reduces it to 0.82±0.15. The combination of Bouvardin and IR reduces eclosion to 0.49, nearly the exact number expected (0.63±0.05×0.82±0.15=0.51±0.10) if the two treatments produced an additive effect. The expected eclosion for additive effect of drug and radiation are denoted with a white dotted line in each graph.
# (§4) Wild type flies were of the Sevelin stock. Mutants have been described before. p535A-1-4 results from targeted deletion of the gene, and is maintained and used as homogygotes. grpl (Chk1 mutants) results from a p-element insertion and is a genetic null. Homozygotes of the latter were identified by the lack of GFP marker on the balancer chromosome. Minute mutants were of the genotypes y[1]w[*]; P[w[+mC]=lacW]RpS131/CyO and P[lacW]RpL36G0471 w67c23/FM7a. Because Minute mutants were in yw or w background, y1w1 (Bloomington stock #1495) was used as ‘wild type’ control in these experiments.
# Feeding stage 3rd instar larvae were irradiated as previously described (2). Briefly, 120 hr old larvae were rinsed to remove food and passed through sizing sieves to obtain animals of uniform size. Larvae were placed in a Petri dish and irradiated using a TORREX X-ray generator, set at 115 kV and 5 mA (producing 2.4 Rads/sec or 1.44 Gy/min) Irradiated larvae were then cultured on cornmeal-agar media (2) containing drug or DMSO carrier. […]
# [3] = system: p53 mutant Drosophila larvae; assay: Drosophila larval survival to adulthood (eclosion), drug with and without IR, p53 mutants; assay type: in vivo; conditions: drug alone (without radiation), wide range of doses
# Method: as §1, with “To validate the identification of Bouvardin from the primary screen, the effect of this molecule on Drosophila larvae alone or in combination with radiation were assessed (FIG. 12). The” for “The”
# as §2, §3, §4
# Feeding stage 3rd instar larvae were irradiated as previously described (2). Briefly, 120 hr old larvae were rinsed to remove food and passed through sizing sieves to obtain animals of uniform size. Larvae were placed in a Petri dish and irradiated using a TORREX X-ray generator, set at 115 kV and 5 mA (producing 2.4 Rads/sec or 1.44 Gy/min) Irradiated larvae were then cultured on cornmeal-agar media (2) containing drug or DMSO carrier. In all experiments using human cells, cells in 96-well plates were irradiated with a RS2000 Biological Irradiator (Rad Source Technologies, Inc.) delivering 1 Gy/min.
# [4] = system: H157 lung cancer cells; assay: CellTiter-Glo Luminescent Cell Viability Assay, Streptovitacin with ionizing radiation, H157; assay type: cell-based, human; conditions: drug added 24 hr before irradiation
# Method: FIG. 15 depicts CI values for Streptovitacin A and radiation on H157 lung cancer cells.
# For FIG. 15 CellTiter-Glo® Luminescent Cell Viability Assay (Promega G7570) were used to determine the effect of Streptovitacin (concentrations in uM) in combination with ionizing radiation (in Gy, X-axis). The drug was added 24 hr before irradiation. (A) Faction affected (Fa) determined by the following formula 1−(x/y) where x is the experimental sample and y is the no Bouvardin/no drug control) (B) Corresponding CI values. Cells were irradiated in a Faxitron X-ray cabinet x-ray system (Lincolnshire, Ill.) set at 115 kV and 5 mA (producing 5.33 Rads/sec or 3.2 Gy/min) Note that this X-ray machine, produces a higher dose rate (lower exposure time) than the X-ray machine used on H157 cells in FIG. 18. Even with the same settings, higher IR doses are needed to achieve the same Fa. More important, combinatorial effects with drugs are similar if not identical on the two machines.
# [5] = system: Det562 Head and Neck Squamous Cell Carcinoma cells; assay: Streptovitacin A alone and in combination with taxol on human cancer cells; assay type: cell-based; conditions: at a wide range of doses
# Method: FIG. 11 depicts that streptovitacin A synergizes with taxol on Det562 Head and Neck Cancer cells. Concentrations for streptovitacin/taxol are shown. CI=1 indicates additive effects; CI>1 indicates antagonistic effects; CI<1 indicates synergy. The y-axis is “Combination Index” (CI).
# The effect of streptovitacin A on human cancer cells alone and in combination with taxol was tested.
# FIG. 11 depicts that at a wide range of doses the two drugs are synergistic (CI<1) in Det562 Head and Neck Squamous Cell Carcinoma cells.
# [6] = system: Det562 cells; assay: CellTiter-Glo Luminescent Cell Viability Assay, Bouvardin with Taxol, Det562; assay type: cell-based, human; conditions: Det562 versus FaDu
# Method: “Combination Index” computation. Combination Indices were calculated using CalcuSyn software (Biosoft), which uses the method of Chou and Talalay. This method first computes drug-induced effect using the Hill Equation: where E is the measured effect; C is the drug concentration; Emax is the full range of drug effect, usually at or near 100%; IC50 is the drug concentration producing the median effect of 50%; and n is the curve shape parameter describing the steepness of the concentration-effect relationship. The Chou and Talalay method then linearizes the Hill Equation by logarithmic transformation as: where fu is the fraction of cells left unaffected after drug exposure, fa is the fraction of cells affected by the exposure, C is the drug concentration used, Cm is the concentration to achieve the median effect, and n is the curve shape parameter. Cm and n are equivalent to IC50 and n, respectively, in the Hill Equation. The values of n (obtained from the slope), nlog(Cm) (obtained from the absolute value of the intercept), and, therefore, Cm are obtained by plotting log(fu−1−1) versus log(C). […]
# The growth inhibitory effects of Bouvardin with Taxol were evaluated using CellTiter-Glo® Luminescent Cell Viability Assay (Promega G7570). […] Luminescence of each well was measured using an automated plate reader.
# [7] = system: cells from human squamous cell carcinoma, melanoma, non-small cell lung carcinoma, malignant gliomas and small cell lung cancer; conditions: Topotecan and its analogs; preclinical models; cited from earlier work
# [8] = system: xenografts of Rhabdomyosarcoma; conditions: cited from earlier work
compound,measurement,setting,value
CC[C@@]1(O)C(=O)OCc2c1cc1n(c2=O)Cc2cc3ccccc3nc2-1 [20-S Camptothecin],Reproducible hit that increased the sensitivity of larvae to radiation; screen in which identified,[1],Camptothecin (1)
CC[C@H](C)[C@H]1NC(=O)[C@@H](NC(=O)[C@@H](CC(C)C)N(C)C(=O)[C@@H]2CCCN2C(=O)C(C)O)[C@@H](C)OC(=O)[C@H](Cc2ccc(OC)cc2)N(C)C(=O)[C@@H]2CCCN2C(=O)[C@H](CC(C)C)NC(=O)[C@@H](C)C(=O)[C@H](C(C)C)OC(=O)C[C@@H]1O (stereo partly shown) [Didemnin B],Reproducible hit that increased the sensitivity of larvae to radiation; screen in which identified,[1],Didemnin B (2)
C[C@H]1CC[C@@H](C(C)(C)O)CC2=C1CC[C@@H]2C [Guaiol],Reproducible hit that increased the sensitivity of larvae to radiation; screen in which identified,[1],Guaiol (2)
"C[C@H]1C[C@@](C)(O)C[C@@H]([C@H](O)CC2CC(=O)NC(=O)C2)C1=O [Streptovitacin A, streptovitacin A]",manner in which drug and ionizing radiation act together to kill larvae,[2],act synergistically
same,observed average for the combination versus expected additive value,[2]; 10 μM drug + IR,significantly lower than the expected additive value
same,fraction of p53 mutant larvae that survive to adulthood versus wild type larvae,[3],lower than the fraction of wild type larvae that survive to adulthood
same,fraction of p53 mutant larvae that survive to adulthood versus wild type larvae,[3]; listed as streptovitacin A,kills p53 mutant larvae selectively over wild type larvae
same,interaction of drug with radiation,[4],synergize at most combinations tested
same,"Combination Index (CI), streptovitacin A with taxol",[5],< 1
"CC(=O)O[C@H]1C(=O)[C@@]2(C)[C@H]([C@H](OC(=O)c3ccccc3)[C@]3(O)C[C@H](OC(=O)[C@H](O)[C@@H](NC(=O)c4ccccc4)c4ccccc4)C(C)=C1C3(C)C)[C@]1(OC(C)=O)CO[C@@H]1C[C@@H]2O [Taxol, paclitaxel, reference compound]",sensitivity of cells to Taxol alone,[6],more sensitive to Taxol alone than FaDu cells
CC[C@@]1(O)C(=O)OCc2c1cc1n(c2=O)Cc2cc3c(CN(C)C)c(O)ccc3nc2-1 [Topotecan],interaction with radiation,[7],synergize with radiation
same,interaction with radiation,[8],Synergy between Topotecan and radiation has been confirmed
Bleomycin,Reproducible hit that increased the sensitivity of larvae to radiation; screen in which identified,[1],Bleomycin (2)

# From patent US20150343016A1, “CHEMICAL ENTITIES AND THERAPEUTIC USES THEREOF” (The Regents of the University of Colorado, a body corporate, priority 2010, published 2015)
